These results are taken from PMC8659243, “Design, Synthesis and Tumour-Selective Toxicity of Novel 1-[3-{3,5-Bis(benzylidene)-4-oxo-1-piperidino}-3-oxopropyl]-4-piperidone Oximes and Related Quaternary Ammonium Salts” (Molecules, 2021).

For data set [1], the system named is Ca9-22 cells. The experiment in a line: Cytotoxicity against Ca9-22 cells, MTT method, 48 h. In kind it is cell-based, human. The note with it: for CC50: Homo sapiens, read-out: CC50 Ca9-22; for SI Ca9-22: average CC50 towards HGF, HPLF, HPC divided by CC50 against Ca9-22. In outline: (§1)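 Oral squamous carcinoma lines and normal oral cells (gingival fibroblast, periodontal ligament fibroblast, pulp) were exposed to various compound concentrations in DMEM with 10% heat-inactivated FBS at 37 °C for 48 h. Viability was read by MTT.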

In data set [2] the test system is HL-60 (TB), K-562, RPMI-8226 and SR cells. The arrangement: method as in PMID 24657568. As to conditions: read-out: average IC50 against HL-60 (TB), K-562, RPMI-8226 and SR cells; cited from earlier work.
Data set [3] deals with HSC-4 cells. The experiment in a line: Cytotoxicity against HSC-4 cells, MTT method, 48 h. In kind it is cell-based, human. As to conditions: for CC50: Homo sapiens, read-out: CC50 HSC-4; for SI HSC-4: average CC50 towards HGF, HPLF, HPC divided by CC50 against HSC-4. In outline:
as §1
In general terms: Formazan colour is commonly taken as a measure of viable cells.

Data set [4] relates to Ca9-22, HSC-2 and HSC-4 cells. The experiment in a line: Average over Ca9-22, HSC-2 and HSC-4 neoplastic cells. In kind it is cell-based, human. The note with it: for CC50: Homo sapiens, read-out: Average CC50; for Average SI: average of SI for Ca9-22, HSC-2 and HSC-4. In outline: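 Compounds applied at various concentrations to human oral squamous carcinoma lines in DMEM with 10% heat-inactivated FBS for 48 h at 37 °C; viability read by MTT. Values are averaged across the three tumour lines.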

A short description of data set [5]: Cytotoxicity against non-malignant HPC cells, MTT method, 48 h. As to conditions: human, pulp cells (HPC). In kind it is cell-based. In outline: as §1
The nature of data set [6]: Cytotoxicity against non-malignant HPLF cells, MTT method, 48 h. In kind it is cell-based. The note with it: human, periodontal ligament fibroblasts (HPLF). In outline:
as §1

Data set [7] in a line: Cytotoxicity against non-malignant HGF cells, MTT method, 48 h. The note with it: human, gingival fibroblasts (HGF). In kind it is cell-based. In outline:
as §1

Data set [8] in a line: Average over HGF, HPLF and HPC non-malignant cells. In kind it is cell-based. As to conditions: human, HPLF and HPC non-malignant cells (average of the three). In outline:
as §1

In data set [9] the test system is CEM T-lymphoblastic leukemia cells. Description: Cytotoxicity against CEM cells, MTT method, 24 h. In kind it is cell-based. As to conditions: Homo sapiens, CCRF-CEM, concentration required to inhibit cell growth by 50%. The procedure: The method used for the evaluation of various compounds against human CEM cells has been reported previously. In brief, cells were grown in RPMI-1640 medium supplemented with 10% heat-inactivated fetal bovine serum. Different concentrations of compounds were added to the media, and after 24 h incubation, cytotoxicity was measured by the MTT method.

A short description of data set [10]: Stability by 1H NMR in 9:1 deuterated dimethylsulfoxide and deuterium oxide. In kind it is physicochemical. The note with it: 37 °C.
The subject of data set [11] is HSC-2 cells. Description: Cytotoxicity against HSC-2 cells, MTT method, 48 h. In kind it is cell-based, human. The note with it: for CC50: Homo sapiens, HSC-2, concentration required to kill 50% of the cells, 48 h, MTT; for SI HSC-2: average CC50 towards HGF, HPLF, HPC divided by CC50 against HSC-2. In outline: as §1
Data set [12] has as its system Ca9-22 cells. Description: Cell cycle analysis and morphological changes in Ca9-22 cells. In kind it is cell-based, human. The note with it: 24 h. The procedure:
Treated and untreated Ca9-22 cells (approximately 10^6 cells) were harvested, fixed with 1% paraformaldehyde, treated with 0.2 mg/mL RNase A (preheated for 10 min at 100 °C to inactivate DNase), stained for 15 min with 0.01% propidium iodide in the presence of 0.01% NP-40 to prevent cell aggregation, filtered through Falcon® cell strainers ([…]) (Corning, NY, USA), subjected to cell sorting (SH800 Series; SONY Imaging Products and Solutions Inc., Kanagawa, Japan) and then analyzed with Cell Sorter Software version 2.1.2. (SONY Imaging Products and Solutions Inc., Kanagawa, Japan), as described previously.

For data set [13], the system named is CEM cells. The experiment in a line: Effect on mitochondrial membrane potential, JC-1 dye, flow cytometry. In kind it is cell-based, human. The note with it: CC50 and twice CC50 concentrations, 8 h. The procedure:
The effect of 4b,c on the mitochondrial membrane potential of CEM cells was determined using a literature method. In brief, the cells were incubated with the compounds for 8 h. The neoplasms were then stained with the JC-1 dye and the results were obtained using flow cytometry.
In general terms: Flow cytometry measures light scatter and fluorescence of single cells or particles in a stream.

For data set [14], the system named is COLO 205, HCC2998, HCT-15, KM12 and SW-620 cells. As to conditions: read-out: average IC50 against COLO 205, HCC2998, HCT-15, KM12 and SW-620 cells; cited from earlier work.
The mark [15] stands for this setting: Ca9-22, concentration required to kill 50% of the cells, 48 h, MTT.
The mark [16] stands for this setting: HSC-4, concentration required to kill 50% of the cells, 48 h, MTT.
The mark [17] stands for this setting: average of Ca9-22, HSC-2 and HSC-4.

SMILES strings stand for the structures. Where two headings read alike, the source gives them in different places.

The term CC50 denotes the concentration that lowers cell viability or growth by half. Usually IC50 stands for the midpoint of a concentration-inhibition curve. Regarding `N[C@@H](Cc1ccc(N(CCCl)CCCl)cc1)C(=O)O` [Melphalan, reference compound], the CC50 in data set [1] (Ca9-22, 48 h) is 48.5 ± 1.33 µM; in data set [3] (HSC-4, 48 h), 17.4 ± 0.88 µM; in data set [4], 26.7 µM. The IC50 in data set [2] was 56.7 µM. The CC50 at 48 h in data set [5] is over 200 µM; in data set [6], 195 ± 4.04 µM; in data set [7] it was 157 ± 38.2 µM.

By melting point is commonly meant the temperature, or range, at which the solid turns liquid. The molecule `C[N+]1(CCC(=O)N2C/C(=C\c3ccccc3)C(=O)/C(=C/c3ccccc3)C2)CCC(=NO)CC1` (stereo not drawn) [Compound 4a, (3~{E},5~{E})-3,5-bis-benzylidine-1-[3-(4-hydroximino-1-piperidyl)propanoyl]piperidin-4-one methiodide] gave a melting point of 173 °C. In data set [8], the CC50 at 48 h was 17 µM. The cytotoxic concentration (CC50) in [1] (setting [15]) came to 0.56 ± 0.01 µM. The “SI Ca9-22” value in data set [1] was determined as 30.4. In addition, the IC50 in [9] was 7.62 ± 1.44 µM. In addition, the CC50 in data set [3] (setting [16]) came to 0.58 ± 0.04 µM. Also, the “SI HSC-4” value in data set [3] amounted to 29.3. Moreover, the CC50 in data set [4] (setting [17]) came to 0.86 µM. For the same molecule, the “Average SI” value in data set [4] came out at 23.8. For the same molecule, in data set [5], the midpoint of cytotoxicity, the CC50 at 48 h, lay at 16.8 ± 0.68 µM. Moreover, the “stability: 1H NMR spectra in dissolution and after 48 h incubation” value in [10] is recorded as “identical”. Besides, in data set [6], the CC50 at 48 h is 24.6 ± 1.1 µM. This molecule also displayed a CC50 at 48 h in data set [7] of 9.65 ± 1.23 µM. Also, in data set [11], the CC50 came out at 1.45 ± 0.16 µM and the “SI HSC-2” value is recorded as 11.7.

For the molecule `C[N+]1(CCC(=O)N2C/C(=C\c3ccc(Cl)c(Cl)c3)C(=O)/C(=C/c3ccc(Cl)c(Cl)c3)C2)CCC(=NO)CC1` (stereo not drawn) [Compound 4d, (3~{E},5~{E})-3,5-bis[(3,4-dichlorophenyl)methylene]-1-[3-(4-hydroximino-1-piperidyl)propanoyl]piperidin-4-one methiodide], the CC50 at 48 h in data set [8] is 2.36 µM; in data set [5] it was 3.81 ± 0.02 µM; in [6], 2.12 ± 0.2 µM; in data set [7], 1.15 ± 0.41 µM. For the same molecule, the CC50 in data set [1] (setting [15]) was found to be 0.01 µM; in data set [3] (setting [16]), 0.03 µM; in data set [4] (setting [17]) it was 0.02 µM; in data set [11], 0.03 µM. Further, the “SI Ca9-22” value in [1] turned out to be 236. The “morphological change and cell cycle effect” value in [12] was “induced cell spreading due to G2/M cell accumulation without the induction of a subG1 population”. The molecule further had an IC50 in data set [9] of 5.19 ± 0.66 µM. Also, the “SI HSC-4” value in [3] is given as 78.7. Moreover, the “SI HSC-2” value in data set [11] was 78.7.

Take `C[N+]1(CCC(=O)N2C/C(=C\c3ccc(Cl)cc3)C(=O)/C(=C/c3ccc(Cl)cc3)C2)CCC(=NO)CC1` (stereo not drawn) [Compound 4c, (3~{E},5~{E})-3,5-bis[(4-chlorophenyl)methylene]-1-[3-(4-hydroximino-1-piperidyl)propanoyl]piperidin-4-one methiodide]: the CC50 at 48 h was 4.04 µM in data set [8], 6.3 ± 0.7 µM in data set [5], 4.17 ± 1.44 µM in [6] and 1.65 ± 0.17 µM in data set [7]. In addition, the CC50 in data set [1] (setting [15]) is 0.02 ± 0.01 µM; in data set [3] (setting [16]) it was 0.09 ± 0.03 µM; in data set [4] (setting [17]) it was 0.06 µM; in data set [11] it was 0.06 ± 0.01 µM. Moreover, the “SI Ca9-22” value in [1] came out at 202. The half-inhibitory concentration (IC50) in [9] is 4.96 ± 0.28 µM. Further, the “effect on the mitochondrial membrane potential (MMP)” value in [13] was “interfered with the MMP”. In addition, the “SI HSC-4” value in data set [3] is reported as 44.9. Further, the “SI HSC-2” value in data set [11] is 67.3.

As for `C[N+]1(CCC(=O)N2C/C(=C\c3ccc(F)cc3)C(=O)/C(=C/c3ccc(F)cc3)C2)CCC(=NO)CC1` (stereo not drawn) [Compound 4b, (3~{E},5~{E})-3,5-bis[(4-fluorophenyl)methylene]-1-[3-(4-hydroximino-1-piperidyl)propanoyl]piperidin-4-one methiodide], the CC50 at 48 h in data set [8] came out at 8.31 µM; in [5] it was 11.3 ± 2.59 µM; in data set [6], 9.13 ± 0.48 µM; in [7], 4.5 ± 1.39 µM. The CC50 in data set [1] (setting [15]) stood at 0.29 ± 0.23 µM; in [3] (setting [16]) it was 0.21 ± 0.01 µM; in data set [4] (setting [17]), 0.31 µM; in data set [11], 0.42 ± 0.14 µM. Moreover, in [1], the “SI Ca9-22” value is given as 28.7. Further, 1.05 ± 0.38 µM corresponded to half-maximal inhibition in [9] (IC50). Also, the “effect on the mitochondrial membrane potential (MMP)” value in data set [13] was “interfered with the MMP”. For the same molecule, the “SI HSC-4” value in [3] was found to be 39.6. The “Average SI” value in data set [4] was 29.4. Further, the “SI HSC-2” value in data set [11] amounted to 19.8.

As for `O=c1[nH]cc(F)c(=O)[nH]1` [5-fluorouracil], the IC50 in data set [14] is 8.46 µM.
